Reference: patent publication US11655268B2, “Nucleoside or nucleotide derivatives, and uses thereof” (ST Pharm Co., Ltd., priority 2018, dated 2023)
Structures can show the parent of a compound that is named as a salt.

What was measured:
[1] = in vitro; details: dog
[2] = tested on: Influenza virus B/Lee/40; assay: Cytopathic effect reduction, influenza B Lee in MDCK cells, MTT; assay type: cell-based; details: for Selectivity index FluB Lee: CC50/EC50; for EC50: MDCK, 72 h, read-out: Anti-Flu activity EC50 FluB Lee
[3] = tested on: DENV; assay: Reduction in viral infection, dengue virus in Vero cells, immunofluorescence (4G2 antibody); assay type: cell-based, Dengue virus New Guinea C (NGC); details: 72 h, read-out: EC50 DENV
[4] = Cytotoxicity (CC50) in Vero cells; details: African green monkey, CC50 (DENV), Vero cells, DENV test

| Compound | CC50 at 3 days [1] [µM] | Selectivity index FluB Lee [2] | EC50 [2] [µM] | EC50 [3] [µM] | CC50 at 3 days [4] [µM] | CC50 [1] [µM] |
| --- | --- | --- | --- | --- | --- | --- |
| Cn1cc(C(=O)Nc2ccn([C@@H]3O[C@H](CO)[C@@H](O)C3(F)F)c(=O)n2)cn1 [Example 15, N-(1-((2R,4R,5R)-3,3-difluoro-4-hydroxy-5-(hydroxymethyl)tetrahydrofuran-2-yl)-2-oxo-1,2-dihydropyrimidin-4-yl)-1-methyl-1H-pyrazole-4-carboxamide] | > 100 | 12.5 | 8 | – | – | – |
| O=C(Nc1ccn(C2O[C@H](CO)[C@@H](O)[C@H]2F)c(=O)n1)c1cccnc1 (stereo in doubt) [Example 26, N-(1-((2S,3R,4R,5R)-3-fluoro-4-hydroxy-5-(hydroxymethyl)tetrahydrofuran-2-yl)-2-oxo-1,2-dihydropyrimidin-4-yl)nicotinamide] | – | – | – | 57.7 | > 100 | – |
| Cc1nccc(C(=O)Nc2ccn([C@@H]3O[C@H](CO)[C@@H](O)C3(F)F)c(=O)n2)n1 [Example 24, N-(1-((2R,4R,5R)-3,3-difluoro-4-hydroxy-5-(hydroxymethyl)tetrahydrofuran-2-yl)-2-oxo-1,2-dihydropyrimidin-4-yl)-2-methylpyrimidin-4-carboxamide] | > 100 | >83 | < 1.2 | < 1.2 | 55.4 | – |
| COc1ccc(C(=O)Nc2ccn([C@@H]3O[C@H](CO)[C@@H](O)C3(F)F)c(=O)n2)nc1 [Example 21, N-(1-((2R,4R,5R)-3,3-difluoro-4-hydroxy-5-(hydroxymethyl)tetrahydrofuran-2-yl)-2-oxo-1,2-dihydropyrimidin-4-yl)-5-methoxypicolinamide] | > 100 | >4.5 | 22.3 | 1.3 | > 100 | – |
| NC(=O)c1ncn([C@@H]2O[C@H](CO)[C@@H](O)[C@H]2O)n1 [RBV, ribavirin, reference compound] | – | – | 40.6 | – | – | – |
| O=C(Nc1ccn([C@@H]2O[C@H](CO)[C@@H](O)C2(F)F)c(=O)n1)c1ccc(C(F)(F)F)nc1 [Example 14, N-(1-((2R,4R,5R)-3,3-difluoro-4-hydroxy-5-(hydroxymethyl)tetrahydrofuran-2-yl)-2-oxo-1,2-dihydropyrimidin-4-yl)-6-(trifluoromethyl)nicotinamide] | > 100 | >32.3 | 3.1 | – | – | – |
| O=C(Nc1ccn(C2O[C@H](CO)[C@@H](O)[C@H]2F)c(=O)n1)c1ccc(F)nc1 (stereo in doubt) [Example 42, 6-Fluoro-N-(1-((2S,3R,4R,5R)-3-fluoro-4-hydroxy-5-(hydroxymethyl)tetrahydrofuran-2-yl)-2-oxo-1,2-dihydropyrimidin-4-yl)nicotinamide] | > 100 | >5.5 | 18.3 | – | – | – |
| Cl.Nc1ccc(C(=O)Nc2ccn([C@@H]3O[C@H](CO)[C@@H](O)C3(F)F)c(=O)n2)nc1 [Example 20, 5-amino-N-(1-((2R,4R,5R)-3,3-difluoro-4-hydroxy-5-(hydroxymethyl)tetrahydrofuran-2-yl)-2-oxo-1,2-dihydropyrimidin-4-yl)picolinamide-hydrochloride] | – | >5.1 | 19.5 | 1.6 | 75.9 | > 100 |
| O=C(Nc1ccn(C2O[C@H](CO)[C@@H](O)[C@H]2F)c(=O)n1)c1ccc(C(F)(F)F)nc1 (stereo in doubt) [Example 41, N-(1-((2S,3R,4R,5R)-3-fluoro-4-hydroxy-5-(hydroxymethyl)tetrahydrofuran-2-yl)-2-oxo-1,2-dihydropyrimidin-4-yl)-6-(trifluoromethyl)nicotinamide] | > 100 | >5.3 | 18.9 | – | – | – |
| CCC(CC)O[C@@H]1C=C(C(=O)O)C[C@H](N)[C@H]1NC(C)=O [OSV-C, oseltamivir carboxylate, reference compound] | – | – | 1.46 | – | – | – |
| NC12CC3CC(CC(C3)C1)C2 [AMT, amantadine hydrochloride, reference compound] | – | – | > 100 | – | – | > 100 |
